Source: PubChem BioAssay AID1963837 (Molecular Pharmacology Branch, DTP, NCI, 2024)
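Further: spheroids exposed to drugs for seven days before readout.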

The compounds below were run on 843126-344-R-J1-PDC complex spheroid viability (assay: Anticancer human tumor 843126-344-R-J1-PDC patient-derived melanoma cell line growth inhibition [POLQ]). Settings: second compound 3.16 µM; first compound 0.0316 µM; hits give low values.
How it was run: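 PDC + HUVEC + MSC complex spheroids; POLQ inhibitors ± partner drugs; top conc. at/near clinical Cmax, else 10 microM (SN-38 1 microM), half-log dilutions; 37 degrees C, 5% CO2.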
For Cn1ncnc1[C@H]1c2n[nH]c(=O)c3cc(F)cc(c23)N[C@@H]1c1ccc(F)cc1 + Nc1ccc(C#CCN(C(=O)Cc2ncc(C(F)(F)F)cc2C(F)(F)F)c2ccc(F)cc2)nn1, the viability, T/C was 102%.

Same assay, conditions: second compound 3.16 µM; first compound 0.1 µM; hits give low values
C=CC(=O)N1CCN(c2nc(=O)n(-c3c(C)ccnc3C(C)C)c3nc(-c4c(O)cccc4F)c(F)cc23)C(C)C1 (stereo unspecified) + Nc1ccc(C#CCN(C(=O)Cc2ncc(C(F)(F)F)cc2C(F)(F)F)c2ccc(F)cc2)nn1 gave a viability, T/C of 88.7%. CC(C)n1c(=O)n(C)c2cnc3cc(F)c(-c4ccc(OCCCN5CCCCC5)nc4)cc3c21 + Nc1ccc(C#CCN(C(=O)Cc2ncc(C(F)(F)F)cc2C(F)(F)F)c2ccc(F)cc2)nn1 showed a viability, T/C of 84%. CC1COCCN1c1cc(-c2ccnn2C)c2ccnc(-c3ccn[nH]3)c2n1 (stereo unspecified) + Nc1ccc(C#CCN(C(=O)Cc2ncc(C(F)(F)F)cc2C(F)(F)F)c2ccc(F)cc2)nn1 showed a viability, T/C of 70.8%. Work on CC1COCCN1c1cc(C2(S(C)(=N)=O)CC2)nc(-c2ccnc3[nH]ccc23)n1 (stereo unspecified) + Nc1ccc(C#CCN(C(=O)Cc2ncc(C(F)(F)F)cc2C(F)(F)F)c2ccc(F)cc2)nn1 yielded a viability, T/C of 84%. With COc1ccc([C@@H](O)c2cc(-c3ncnc4cc(N5CCOCC5)ccc34)c(F)cc2Cl)nn1 + Nc1ccc(C#CCN(C(=O)Cc2ncc(C(F)(F)F)cc2C(F)(F)F)c2ccc(F)cc2)nn1 the viability, T/C was 99.3%. Work on Cn1ncnc1[C@H]1c2n[nH]c(=O)c3cc(F)cc(c23)N[C@@H]1c1ccc(F)cc1 + Nc1ccc(C#CCN(C(=O)Cc2ncc(C(F)(F)F)cc2C(F)(F)F)c2ccc(F)cc2)nn1 yielded a viability, T/C of 94.8%.

Same assay, conditions: second compound 3.16 µM; first compound 0.316 µM; hits give low values
C=CC(=O)N1CCN(c2nc(=O)n(-c3c(C)ccnc3C(C)C)c3nc(-c4c(O)cccc4F)c(F)cc23)C(C)C1 (stereo unspecified) + Nc1ccc(C#CCN(C(=O)Cc2ncc(C(F)(F)F)cc2C(F)(F)F)c2ccc(F)cc2)nn1 gave a viability, T/C of 106%. With CC(C)n1c(=O)n(C)c2cnc3cc(F)c(-c4ccc(OCCCN5CCCCC5)nc4)cc3c21 + Nc1ccc(C#CCN(C(=O)Cc2ncc(C(F)(F)F)cc2C(F)(F)F)c2ccc(F)cc2)nn1 the viability, T/C was 88.9%. CC1COCCN1c1cc(-c2ccnn2C)c2ccnc(-c3ccn[nH]3)c2n1 (stereo unspecified) + Nc1ccc(C#CCN(C(=O)Cc2ncc(C(F)(F)F)cc2C(F)(F)F)c2ccc(F)cc2)nn1 gave a viability, T/C of 59.6%. CC1COCCN1c1cc(C2(S(C)(=N)=O)CC2)nc(-c2ccnc3[nH]ccc23)n1 (stereo unspecified) + Nc1ccc(C#CCN(C(=O)Cc2ncc(C(F)(F)F)cc2C(F)(F)F)c2ccc(F)cc2)nn1 gave a viability, T/C of 89%. COc1ccc([C@@H](O)c2cc(-c3ncnc4cc(N5CCOCC5)ccc34)c(F)cc2Cl)nn1 + Nc1ccc(C#CCN(C(=O)Cc2ncc(C(F)(F)F)cc2C(F)(F)F)c2ccc(F)cc2)nn1 was tested, and the viability, T/C was 92%.

Same assay, conditions: second compound 3.16 µM; first compound 1 µM; hits give low values
Work on C=CC(=O)N1CCN(c2nc(=O)n(-c3c(C)ccnc3C(C)C)c3nc(-c4c(O)cccc4F)c(F)cc23)C(C)C1 (stereo unspecified) + Nc1ccc(C#CCN(C(=O)Cc2ncc(C(F)(F)F)cc2C(F)(F)F)c2ccc(F)cc2)nn1 yielded a viability, T/C of 92.2%. CC(C)n1c(=O)n(C)c2cnc3cc(F)c(-c4ccc(OCCCN5CCCCC5)nc4)cc3c21 + Nc1ccc(C#CCN(C(=O)Cc2ncc(C(F)(F)F)cc2C(F)(F)F)c2ccc(F)cc2)nn1 showed a viability, T/C of 82.8%. With CC1COCCN1c1cc(-c2ccnn2C)c2ccnc(-c3ccn[nH]3)c2n1 (stereo unspecified) + Nc1ccc(C#CCN(C(=O)Cc2ncc(C(F)(F)F)cc2C(F)(F)F)c2ccc(F)cc2)nn1 the viability, T/C was 44.5%. CC1COCCN1c1cc(C2(S(C)(=N)=O)CC2)nc(-c2ccnc3[nH]ccc23)n1 (stereo unspecified) + Nc1ccc(C#CCN(C(=O)Cc2ncc(C(F)(F)F)cc2C(F)(F)F)c2ccc(F)cc2)nn1 gave a viability, T/C of 86.1%. Compound COc1ccc([C@@H](O)c2cc(-c3ncnc4cc(N5CCOCC5)ccc34)c(F)cc2Cl)nn1 + Nc1ccc(C#CCN(C(=O)Cc2ncc(C(F)(F)F)cc2C(F)(F)F)c2ccc(F)cc2)nn1 has a viability, T/C of 73.6%.

Same assay, conditions: second compound 3.16 µM; first compound 3.16 µM; hits give low values
With C=CC(=O)N1CCN(c2nc(=O)n(-c3c(C)ccnc3C(C)C)c3nc(-c4c(O)cccc4F)c(F)cc23)C(C)C1 (stereo unspecified) + Nc1ccc(C#CCN(C(=O)Cc2ncc(C(F)(F)F)cc2C(F)(F)F)c2ccc(F)cc2)nn1 the viability, T/C was 85.8%. For CC(C)n1c(=O)n(C)c2cnc3cc(F)c(-c4ccc(OCCCN5CCCCC5)nc4)cc3c21 + Nc1ccc(C#CCN(C(=O)Cc2ncc(C(F)(F)F)cc2C(F)(F)F)c2ccc(F)cc2)nn1, the viability, T/C was 81.8%. For CC1COCCN1c1cc(-c2ccnn2C)c2ccnc(-c3ccn[nH]3)c2n1 (stereo unspecified) + Nc1ccc(C#CCN(C(=O)Cc2ncc(C(F)(F)F)cc2C(F)(F)F)c2ccc(F)cc2)nn1, the viability, T/C was 34.5%. CC1COCCN1c1cc(C2(S(C)(=N)=O)CC2)nc(-c2ccnc3[nH]ccc23)n1 (stereo unspecified) + Nc1ccc(C#CCN(C(=O)Cc2ncc(C(F)(F)F)cc2C(F)(F)F)c2ccc(F)cc2)nn1 showed a viability, T/C of 69.8%. Compound COc1ccc([C@@H](O)c2cc(-c3ncnc4cc(N5CCOCC5)ccc34)c(F)cc2Cl)nn1 + Nc1ccc(C#CCN(C(=O)Cc2ncc(C(F)(F)F)cc2C(F)(F)F)c2ccc(F)cc2)nn1 has a viability, T/C of 77.8%.

Same assay, conditions: second compound 3.16 µM; first compound 10 µM; hits give low values
C=CC(=O)N1CCN(c2nc(=O)n(-c3c(C)ccnc3C(C)C)c3nc(-c4c(O)cccc4F)c(F)cc23)C(C)C1 (stereo unspecified) + Nc1ccc(C#CCN(C(=O)Cc2ncc(C(F)(F)F)cc2C(F)(F)F)c2ccc(F)cc2)nn1 gave a viability, T/C of 84.5%. Compound CC(C)n1c(=O)n(C)c2cnc3cc(F)c(-c4ccc(OCCCN5CCCCC5)nc4)cc3c21 + Nc1ccc(C#CCN(C(=O)Cc2ncc(C(F)(F)F)cc2C(F)(F)F)c2ccc(F)cc2)nn1 has a viability, T/C of 81%. CC1COCCN1c1cc(-c2ccnn2C)c2ccnc(-c3ccn[nH]3)c2n1 (stereo unspecified) + Nc1ccc(C#CCN(C(=O)Cc2ncc(C(F)(F)F)cc2C(F)(F)F)c2ccc(F)cc2)nn1 was tested, and the viability, T/C was 29.9%. With CC1COCCN1c1cc(C2(S(C)(=N)=O)CC2)nc(-c2ccnc3[nH]ccc23)n1 (stereo unspecified) + Nc1ccc(C#CCN(C(=O)Cc2ncc(C(F)(F)F)cc2C(F)(F)F)c2ccc(F)cc2)nn1 the viability, T/C was 53.8%. With COc1ccc([C@@H](O)c2cc(-c3ncnc4cc(N5CCOCC5)ccc34)c(F)cc2Cl)nn1 + Nc1ccc(C#CCN(C(=O)Cc2ncc(C(F)(F)F)cc2C(F)(F)F)c2ccc(F)cc2)nn1 the viability, T/C was 64.6%.

Same assay, conditions: second compound 10 µM; first compound 0.000316 µM; hits give low values
With Cn1ncnc1[C@H]1c2n[nH]c(=O)c3cc(F)cc(c23)N[C@@H]1c1ccc(F)cc1 + Nc1ccc(C#CCN(C(=O)Cc2ncc(C(F)(F)F)cc2C(F)(F)F)c2ccc(F)cc2)nn1 the viability, T/C was 101%.

Same assay, conditions: second compound 10 µM; first compound 0.001 µM; hits give low values
With Cn1ncnc1[C@H]1c2n[nH]c(=O)c3cc(F)cc(c23)N[C@@H]1c1ccc(F)cc1 + Nc1ccc(C#CCN(C(=O)Cc2ncc(C(F)(F)F)cc2C(F)(F)F)c2ccc(F)cc2)nn1 the viability, T/C was 83.6%.

Same assay, conditions: second compound 10 µM; first compound 0.00316 µM; hits give low values
Cn1ncnc1[C@H]1c2n[nH]c(=O)c3cc(F)cc(c23)N[C@@H]1c1ccc(F)cc1 + Nc1ccc(C#CCN(C(=O)Cc2ncc(C(F)(F)F)cc2C(F)(F)F)c2ccc(F)cc2)nn1 gave a viability, T/C of 97%.

Same assay, conditions: second compound 10 µM; first compound 0.01 µM; hits give low values
Work on Cn1ncnc1[C@H]1c2n[nH]c(=O)c3cc(F)cc(c23)N[C@@H]1c1ccc(F)cc1 + Nc1ccc(C#CCN(C(=O)Cc2ncc(C(F)(F)F)cc2C(F)(F)F)c2ccc(F)cc2)nn1 yielded a viability, T/C of 89.5%.
